The text below walks through data of patent US20120125325A1, “THE USE OF AMLEXANOX IN THE THERAPY OF NEUTROPHIL-DRIVEN DISEASES” (priority 2009, published 2012).

For series [1], the system named is LPS-induced neutrophilia in the airways of mice. As to the kind of experiment: LPS-induced airway neutrophilia in mice, inhaled (intra-tracheal) dosing (Example 2). The following applies: for piloerection following LPS aerosol exposure: also seen in vehicle treated animals; for tolerance of dosing: mouse, in vivo. On the procedure:
• n=8 • Group 1—sham • Group 2—vehicle (10% DMSO) • Group 3—amlexanox (0.3 mg/mL) • Group 4—amlexanox (3 mg/mL) • Group 5—amlexanox (10 mg/mL) • Group 6—amlexanox (15 mg/mL) • Group 7—salbutamol (1 mg/mL) • Group 8—amlexanox (0.3 mg/mL)+salbutamol (1 mg/mL) • Group 9—amlexanox (3 mg/mL)+salbutamol (1 mg/mL) • Group 10—dexamethasone (1.0 mg/mL) • Group 11—fluticasone (1.0 mg/mL) • N.B. All test compounds to be administered by intra-tracheal dosing (using a PennCentury device) 1 hour before endotoxin exposure.
Non-fasted mice were weighed, individually identified on the tail with a permanent marker and administered by intra tracheal administration with doses of either vehicle, amlexanox, fluticasone, dexamethasone or salbutamol at time point T=−1 with respect to the start of LPS treatment (see above for group details). At T=0, mice were placed into an exposure chamber and exposed to LPS. The LPS was prepared in a solution of 0.5 mg/ml and aerosolised using a De Vibliss ultrasonic nebuliser 2000, so that 7 ml of the solution was aerosolised during the 30 min exposure period.
8 hours after LPS challenge the trachea was cannulated and BALF extracted. The procedure for this involved infusing and withdrawing 1 mL of PBS into the lungs via a tracheal catheter. This procedure was repeated to give a yield of approximately 2 mL lavage fluid. The BALF was aliquoted for analysis of neutrophilia and the remaining BALF stored at −80° C. for future cytokine analysis if required.
Total and differential white cell counts in the BAL fluid samples were measured using a Neubaur haemocytometer. Cytospin smears of the BAL fluid samples were prepared by centrifugation at 1200 rpm for 1 min at room temperature and stained using a DiffQuik stain system (Dade Behring).
Cells were counted blind using oil immersion microscopy.
Data were reported as total and differential number of cells per mL of BALF, mean±S.E.M. (standard error of the mean).
Inter-group deviations were statistically analysed by a one-way analysis of variance (ANOVA). In the case of significant difference in the mean values among the different levels of treatment, comparisons versus the vehicle group were carried out using the Dunnett's test. In case the equal variance test fails, a Kruskal-Wallis one-way analysis of variance on ranks followed by a Dunn's test were used. p<0.05 will be considered statistically significant.
Test compounds were administered in a dose volume of 20 μL using a FMJ-250 PennCentury device for intra-tracheal dosing.

Series [2] shares this test system. As to the kind of experiment: LPS-induced airway neutrophilia in mice, oral amlexanox (Example 1). The series is classed as in vivo. Particulars: amlexanox 1-30 mg/kg p.o. 1 hour before LPS aerosol, BALF 8 hours after LPS. As to the method:
• n=8 • Group 1—sham (control) • Group 2—Vehicle (10% DMSO, p.o.) • Group 3—amlexanox (1 mg/kg, p.o.) • Group 4—amlexanox (3 mg/kg, p.o.) • Group 5—amlexanox (10 mg/kg, p.o.) • Group 6—amlexanox (30 mg/kg, p.o.) • Group 7—dexamethasone (1 mg/ml) • p.o.=per orus (orally)
N.B. All test compounds were administered via oral gavage using a ball tipped stainless steel delivery cannulae or via intra-tracheal dosing (using a PennCentury devise). In all cases this was 1 hour before endotoxin exposure.
In all cases the cells were counted blind using oil immersion microscopy.
Amlexanox dosed via oral gavage was administered in a dose volume of 0.1 ml using a ball tipped stainless steel delivery cannule.

The subject of the next series is leukotriene B4. The following applies: Taniguchi et al, 1990, and Kimishoto et al, 2006; cited from earlier work.

In the case of `C[C@@H]1C[C@H]2[C@@H]3C[C@H](F)C4=CC(=O)C=C[C@]4(C)[C@@]3(F)[C@@H](O)C[C@]2(C)[C@@]1(O)C(=O)SCF` [fluticasone], in series [1] (mice), the “piloerection following LPS aerosol exposure” value is listed as “noticeable degree of piloerection”. The tolerance of dosing result in series [1] is “good tolerance of dosing”.
With `C[C@@H]1C[C@H]2[C@@H]3CCC4=CC(=O)C=C[C@]4(C)[C@@]3(F)[C@@H](O)C[C@]2(C)[C@@]1(O)C(=O)CO` [dexamethasone], the “piloerection following LPS aerosol exposure” value in series [1] (mice) is listed as “noticeable degree of piloerection”. The tolerance of dosing result in series [1] is “good tolerance of dosing”.
As for `CC(C)(C)NCC(O)c1ccc(O)c(CO)c1` (stereo not drawn) [salbutamol], in series [1] (mice), the “piloerection following LPS aerosol exposure” value was “noticeable degree of piloerection”. Moreover, in series [1], the tolerance of dosing entry was “good tolerance of dosing”.
On to `CC(C)c1ccc2oc3nc(N)c(C(=O)O)cc3c(=O)c2c1` [amlexanox], for which, in series [2], the “inhibition of LPS-induced neutrophilia (cells in bronchoalveolar lavage fluid, FIG. 1)” value was “effective at inhibiting LPS-induced neutrophilia”. In series [1] (mice), the “piloerection following LPS aerosol exposure” value is given as “noticeable degree of piloerection”. In series [1] (mice, amlexanox 0.3-15 mg/mL, 20 μL intra-tracheal 1 hour before LPS aerosol, BALF 8 hours after LPS), the “inhibition of neutrophilia (total cells and neutrophils in bronchoalveolar lavage fluid, FIGS. 2 to 6)” value is reported as “inhibits neutrophilia”. In addition, the tolerance of dosing result in series [1] is “good tolerance of dosing”. In addition, in “Bronchodilator effect”, the “effect as a bronchodilator” value is “little or no effect as a bronchodilator”. Further, in the series on leukotriene B4, the LTB4 production entry is recorded as “increase LTB4 production”.
